# Measurements from article PMC10004634 (PLOS ONE, 2023).
# Like-named read-outs stand apart in the source and are kept apart here.
# How the values were obtained:
# Experiment in all cases: biochemical
# Design in all cases: KINOMEscan scanMAX competition binding, DNA-tagged kinases, qPCR read-out, percent control at 300 nM
# MST3 = molecular target: T1, MST3 (Homo sapiens, UniProt Q9Y6E0)
# T1 construct: gene STK24
# CSNK1A1L = molecular target: T2, CSNK1A1L (Homo sapiens, UniProt Q8N752)
# T2 sequence (Q8N752 1-337): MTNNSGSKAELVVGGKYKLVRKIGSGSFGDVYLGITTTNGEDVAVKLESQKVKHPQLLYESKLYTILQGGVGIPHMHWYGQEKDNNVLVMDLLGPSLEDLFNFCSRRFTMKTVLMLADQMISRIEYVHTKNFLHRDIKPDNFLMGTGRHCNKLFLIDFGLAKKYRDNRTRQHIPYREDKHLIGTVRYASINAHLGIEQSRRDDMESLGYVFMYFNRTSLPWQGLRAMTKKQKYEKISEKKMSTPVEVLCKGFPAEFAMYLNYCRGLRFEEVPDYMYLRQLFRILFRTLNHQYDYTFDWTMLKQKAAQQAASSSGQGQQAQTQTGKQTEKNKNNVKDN
# MARK2 = MARK2 (Homo sapiens, UniProt Q7KZI7)
# Chain of MARK2 (Q7KZI7 whole entry): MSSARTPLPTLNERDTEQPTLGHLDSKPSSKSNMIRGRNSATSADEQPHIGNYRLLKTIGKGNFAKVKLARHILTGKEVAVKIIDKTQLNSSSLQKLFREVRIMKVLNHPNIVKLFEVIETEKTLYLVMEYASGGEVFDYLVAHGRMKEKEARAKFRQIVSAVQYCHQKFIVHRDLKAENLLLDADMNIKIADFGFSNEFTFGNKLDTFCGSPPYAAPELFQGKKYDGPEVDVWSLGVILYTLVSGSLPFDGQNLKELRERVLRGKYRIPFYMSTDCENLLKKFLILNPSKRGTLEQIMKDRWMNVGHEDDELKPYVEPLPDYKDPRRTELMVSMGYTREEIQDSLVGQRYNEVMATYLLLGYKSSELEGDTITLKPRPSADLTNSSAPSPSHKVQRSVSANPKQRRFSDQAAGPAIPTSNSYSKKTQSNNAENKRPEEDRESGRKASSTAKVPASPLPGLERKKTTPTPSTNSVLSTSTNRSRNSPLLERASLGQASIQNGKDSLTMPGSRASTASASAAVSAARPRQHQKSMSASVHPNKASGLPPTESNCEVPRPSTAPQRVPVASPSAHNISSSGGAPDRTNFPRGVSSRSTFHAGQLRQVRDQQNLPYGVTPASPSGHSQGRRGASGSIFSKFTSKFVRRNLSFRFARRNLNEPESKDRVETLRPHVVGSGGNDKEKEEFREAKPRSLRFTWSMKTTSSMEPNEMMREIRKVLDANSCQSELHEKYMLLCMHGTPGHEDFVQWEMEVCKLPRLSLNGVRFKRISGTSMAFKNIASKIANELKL
# PIK3C2G = molecular target: T3, PIK3C2G (Homo sapiens, UniProt O75747)
# T3 sequence (O75747 1-1486): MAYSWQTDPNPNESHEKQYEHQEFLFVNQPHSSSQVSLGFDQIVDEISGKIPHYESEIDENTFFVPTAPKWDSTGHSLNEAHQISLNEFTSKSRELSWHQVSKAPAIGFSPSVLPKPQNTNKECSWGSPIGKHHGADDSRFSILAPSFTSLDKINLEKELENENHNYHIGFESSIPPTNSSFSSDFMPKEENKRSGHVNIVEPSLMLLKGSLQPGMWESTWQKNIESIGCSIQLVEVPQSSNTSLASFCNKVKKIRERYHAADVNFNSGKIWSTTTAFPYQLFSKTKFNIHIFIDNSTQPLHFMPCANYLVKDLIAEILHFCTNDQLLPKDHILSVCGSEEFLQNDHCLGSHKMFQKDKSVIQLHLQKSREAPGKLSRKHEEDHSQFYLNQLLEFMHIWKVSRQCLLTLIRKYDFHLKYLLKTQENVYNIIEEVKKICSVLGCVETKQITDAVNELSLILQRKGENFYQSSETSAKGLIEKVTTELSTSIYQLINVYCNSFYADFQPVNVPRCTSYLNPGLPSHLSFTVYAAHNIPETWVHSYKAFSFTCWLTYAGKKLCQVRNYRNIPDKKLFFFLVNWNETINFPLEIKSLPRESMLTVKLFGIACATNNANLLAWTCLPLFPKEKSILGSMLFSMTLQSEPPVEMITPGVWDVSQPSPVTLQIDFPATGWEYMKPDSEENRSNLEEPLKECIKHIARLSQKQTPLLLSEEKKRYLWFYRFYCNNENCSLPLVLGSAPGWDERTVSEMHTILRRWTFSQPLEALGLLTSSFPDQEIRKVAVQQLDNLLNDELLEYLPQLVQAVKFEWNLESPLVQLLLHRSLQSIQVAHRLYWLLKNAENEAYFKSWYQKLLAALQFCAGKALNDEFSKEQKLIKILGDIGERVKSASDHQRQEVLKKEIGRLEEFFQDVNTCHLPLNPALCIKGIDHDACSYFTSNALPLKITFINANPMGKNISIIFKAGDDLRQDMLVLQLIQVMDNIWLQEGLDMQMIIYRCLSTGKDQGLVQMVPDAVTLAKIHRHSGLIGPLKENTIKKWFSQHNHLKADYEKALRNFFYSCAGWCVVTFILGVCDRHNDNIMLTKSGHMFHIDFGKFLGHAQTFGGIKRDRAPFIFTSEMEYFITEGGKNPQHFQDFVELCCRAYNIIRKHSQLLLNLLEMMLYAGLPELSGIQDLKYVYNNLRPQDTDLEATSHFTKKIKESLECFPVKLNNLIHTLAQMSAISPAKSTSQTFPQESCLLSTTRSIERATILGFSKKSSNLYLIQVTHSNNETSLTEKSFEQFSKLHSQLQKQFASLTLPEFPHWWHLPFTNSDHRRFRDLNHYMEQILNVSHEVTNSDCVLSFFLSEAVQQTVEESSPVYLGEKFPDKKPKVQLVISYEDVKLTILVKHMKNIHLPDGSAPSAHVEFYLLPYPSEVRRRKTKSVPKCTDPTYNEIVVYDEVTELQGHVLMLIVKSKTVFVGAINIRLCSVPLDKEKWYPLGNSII
# MARK4 = molecular target: T4, MARK4 (Homo sapiens, UniProt Q96L34)
# T4 sequence (Q96L34 1-752): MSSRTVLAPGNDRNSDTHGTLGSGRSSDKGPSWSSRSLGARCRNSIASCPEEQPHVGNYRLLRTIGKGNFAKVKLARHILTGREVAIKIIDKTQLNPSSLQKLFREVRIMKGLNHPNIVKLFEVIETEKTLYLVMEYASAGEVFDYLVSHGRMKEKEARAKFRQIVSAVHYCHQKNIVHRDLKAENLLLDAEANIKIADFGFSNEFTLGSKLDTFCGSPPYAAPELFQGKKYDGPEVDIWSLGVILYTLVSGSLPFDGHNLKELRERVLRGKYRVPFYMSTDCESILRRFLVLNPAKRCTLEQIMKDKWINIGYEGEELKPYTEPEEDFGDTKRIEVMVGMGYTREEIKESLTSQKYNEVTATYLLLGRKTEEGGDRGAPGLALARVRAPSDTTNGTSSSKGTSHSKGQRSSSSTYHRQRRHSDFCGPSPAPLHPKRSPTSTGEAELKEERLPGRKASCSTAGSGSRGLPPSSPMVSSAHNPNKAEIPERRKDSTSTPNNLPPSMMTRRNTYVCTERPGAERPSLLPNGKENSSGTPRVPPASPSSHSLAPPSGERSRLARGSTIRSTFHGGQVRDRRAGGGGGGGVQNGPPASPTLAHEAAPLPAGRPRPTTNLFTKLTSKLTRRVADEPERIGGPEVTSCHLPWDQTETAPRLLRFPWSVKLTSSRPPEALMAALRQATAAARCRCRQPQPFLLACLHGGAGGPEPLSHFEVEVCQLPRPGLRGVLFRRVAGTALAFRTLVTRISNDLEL
# [1] = read-out: Percent control / Acalabrutinib
# [2] = read-out: Percent control / Ibrutinib
# [3] = read-out: Percent control / Tirabrutinib
# [4] = read-out: Percent control / Zanubrutinib
# T1 sequence (Q9Y6E0 whole entry): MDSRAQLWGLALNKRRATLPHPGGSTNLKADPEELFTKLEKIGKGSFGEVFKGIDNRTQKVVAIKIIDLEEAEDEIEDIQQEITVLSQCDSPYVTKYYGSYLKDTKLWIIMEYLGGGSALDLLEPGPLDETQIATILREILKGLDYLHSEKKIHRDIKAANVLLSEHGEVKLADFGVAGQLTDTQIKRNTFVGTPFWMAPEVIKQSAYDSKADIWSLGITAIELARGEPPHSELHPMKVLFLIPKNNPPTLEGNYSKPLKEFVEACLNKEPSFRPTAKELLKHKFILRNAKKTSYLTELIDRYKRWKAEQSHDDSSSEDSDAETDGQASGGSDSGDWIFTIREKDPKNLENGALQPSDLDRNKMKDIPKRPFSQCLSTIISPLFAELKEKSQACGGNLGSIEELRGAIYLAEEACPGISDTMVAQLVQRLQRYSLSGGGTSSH
compound,measurement,setting,value
CC#CC(=O)N1CCC[C@H]1c1nc(-c2ccc(C(=O)Nc3ccccn3)cc2)c2c(N)nccn12 [Acalabrutinib],remaining binding at 0.3 µM,MST3; [1],94%
same,remaining binding at 0.3 µM,CSNK1A1L; [1],84%
same,remaining binding at 0.3 µM,MARK2; [1],91%
same,remaining binding at 0.3 µM,PIK3C2G; [1],74%
C=CC(=O)N1CCC[C@@H](n2nc(-c3ccc(Oc4ccccc4)cc3)c3c(N)ncnc32)C1 [Ibrutinib],remaining binding at 0.3 µM,MST3; [2],90%
same,remaining binding at 0.3 µM,MARK4; [2],96%
same,remaining binding at 0.3 µM,CSNK1A1L; [2],93%
same,remaining binding at 0.3 µM,MARK2; [2],87%
same,remaining binding at 0.3 µM,PIK3C2G; [2],97%
CC#CC(=O)N1CC[C@@H](n2c(=O)n(-c3ccc(Oc4ccccc4)cc3)c3c(N)ncnc32)C1 [Tirabrutinib],remaining binding at 0.3 µM,MARK4; [3],94%
same,remaining binding at 0.3 µM,CSNK1A1L; [3],93%
same,remaining binding at 0.3 µM,PIK3C2G; [3],98%
C=CC(=O)N1CCC([C@@H]2CCNc3c(C(N)=O)c(-c4ccc(Oc5ccccc5)cc4)nn32)CC1 [Zanubrutinib],remaining binding at 0.3 µM,MST3; [4],91%
same,remaining binding at 0.3 µM,MARK4; [4],83%
same,remaining binding at 0.3 µM,CSNK1A1L; [4],83%
same,remaining binding at 0.3 µM,MARK2; [4],90%
same,remaining binding at 0.3 µM,PIK3C2G; [4],74%
